{
  "source": "patent US20070202055A1",
  "about": "“Pharmaceutical Formulations” (priority 2006, published 2007)",
  "origin": "cited, not measured here",
  "key": {"[1]": {"system": "symptoms associated with chronic nasal congestion"}, "[2]": {"system": "secretions of natural tear components", "conditions": "preclinical testing"}},
  "data": [
    {"compound": "Oc1cccc(Nc2ncc(F)c(Nc3cccc(O)c3)n2)c1", "note": "[Example R112]", "values": [
      {"measurement": "absolute difference over placebo", "setting": "[1]", "value": 9, "unit": "%"},
      {"measurement": "relative improvement over placebo", "setting": "[1]", "value": "greater than 20%"},
      {"measurement": "improvement from baseline measurements", "setting": "[1]; baseline prior to drug initiation", "value": "up to 38%"}
    ]},
    {"compound": "Cc1cc(CCCOc2c(C)cc(-c3noc(C(F)(F)F)n3)cc2C)on1", "note": "[Pleconaril, 1,2,4-oxadiazole3-[3,5-Dimethyl-4-[3-(3-methyl-5-isoxazolyl)propoxy]phenyl]-5-(trifluoremethyl)]", "values": [
      {"measurement": "activity against rhinoviruses", "setting": "rhinoviruses", "value": "active"},
      {"measurement": "solubility in aqueous solvents", "setting": "aqueous solvents", "value": "insoluble"},
      {"measurement": "solubility in liquids of low polarity", "setting": "for example corn oil and ethanol", "value": "soluble only in liquids of low polarity"}
    ]},
    {"compound": "O=c1ccn([C@@H]2O[C@H](COP(=O)(O)OP(=O)(O)OP(=O)(O)OP(=O)(O)OC[C@H]3O[C@@H](n4ccc(=O)[nH]c4=O)[C@H](O)[C@@H]3O)[C@@H](O)[C@H]2O)c(=O)[nH]1", "note": "[diquafosol]", "values": [
      {"measurement": "effect on secretions of natural tear components", "setting": "[2]", "value": "increased the secretions of natural tear components"}
    ]}
  ]
}
